Laboratory results: ChEMBL document CHEMBL5550160, “Leveraging a rationally designed veliparib-based anilide eliciting anti-leukemic effects for the design of pH-responsive polymer nanoformulation” (Eur J Med Chem, 2024)
Calls of active or inactive are those of the source. No cut-off for these calls is given here.

How the values were obtained:
[1] = biological target: Histone deacetylase 3 (Homo sapiens, UniProt O15379); assay: Inhibition of HDAC3 (unknown origin) using p53 residues 379 to 382 [RHKK(Ac)] as fluorogenic substrate assessed as residual activity at 3.33 x 10^-6M (reference value: 103.08%); conditions: dose 3.33 10^-6M
Histone deacetylase 3, sequence (O15379 whole entry, the tested form may be a part): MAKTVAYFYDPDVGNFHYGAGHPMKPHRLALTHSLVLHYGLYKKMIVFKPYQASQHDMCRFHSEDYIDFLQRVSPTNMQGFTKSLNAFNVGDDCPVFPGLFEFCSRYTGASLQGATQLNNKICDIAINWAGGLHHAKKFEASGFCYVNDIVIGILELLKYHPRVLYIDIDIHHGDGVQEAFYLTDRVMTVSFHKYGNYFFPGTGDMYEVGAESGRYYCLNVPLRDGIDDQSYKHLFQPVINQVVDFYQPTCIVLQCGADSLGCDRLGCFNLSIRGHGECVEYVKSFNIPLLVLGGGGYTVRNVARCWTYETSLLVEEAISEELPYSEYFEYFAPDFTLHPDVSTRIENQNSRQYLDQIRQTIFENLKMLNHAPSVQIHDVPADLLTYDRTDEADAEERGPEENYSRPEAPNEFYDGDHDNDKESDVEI

[2] = biological target: Histone deacetylase 4 (Homo sapiens) (UniProt P56524); assay: Inhibition of HDAC4 (unknown origin) assessed as residual activity at 5.08 x 10^-10M (reference value: 98.90%); conditions: dose 5.08 10^-10M
Histone deacetylase 4 (Homo sapiens), sequence (P56524 whole entry): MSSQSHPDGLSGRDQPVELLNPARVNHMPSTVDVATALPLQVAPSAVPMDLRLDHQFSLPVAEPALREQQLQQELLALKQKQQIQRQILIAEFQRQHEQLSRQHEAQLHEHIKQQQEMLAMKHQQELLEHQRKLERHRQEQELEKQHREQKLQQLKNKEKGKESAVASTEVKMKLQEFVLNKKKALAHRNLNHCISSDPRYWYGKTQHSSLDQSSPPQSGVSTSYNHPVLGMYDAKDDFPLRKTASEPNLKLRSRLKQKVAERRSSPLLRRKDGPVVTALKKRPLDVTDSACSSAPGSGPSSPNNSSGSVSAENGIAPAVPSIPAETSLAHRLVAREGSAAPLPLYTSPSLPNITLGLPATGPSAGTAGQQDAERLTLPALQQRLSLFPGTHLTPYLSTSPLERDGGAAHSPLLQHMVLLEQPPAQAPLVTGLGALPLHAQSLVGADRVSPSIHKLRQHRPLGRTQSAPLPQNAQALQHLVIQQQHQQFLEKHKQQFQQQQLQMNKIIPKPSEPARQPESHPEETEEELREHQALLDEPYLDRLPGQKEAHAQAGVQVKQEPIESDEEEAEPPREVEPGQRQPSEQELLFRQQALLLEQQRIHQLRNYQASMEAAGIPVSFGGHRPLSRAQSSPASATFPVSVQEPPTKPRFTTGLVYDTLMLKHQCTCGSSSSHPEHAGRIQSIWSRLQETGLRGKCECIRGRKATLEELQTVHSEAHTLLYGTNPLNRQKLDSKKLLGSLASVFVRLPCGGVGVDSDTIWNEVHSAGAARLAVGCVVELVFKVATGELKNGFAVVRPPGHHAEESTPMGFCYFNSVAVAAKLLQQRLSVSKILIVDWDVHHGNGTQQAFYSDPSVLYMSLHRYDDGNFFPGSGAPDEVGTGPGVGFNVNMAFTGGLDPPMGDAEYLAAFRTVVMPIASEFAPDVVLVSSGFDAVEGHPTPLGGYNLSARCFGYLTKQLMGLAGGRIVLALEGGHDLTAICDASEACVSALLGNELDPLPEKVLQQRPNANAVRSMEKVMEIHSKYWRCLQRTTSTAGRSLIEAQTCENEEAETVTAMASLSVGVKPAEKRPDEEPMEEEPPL

[3] = tested on: HL-60; assay: Downregulation of HDAC1 protein expression in human HL-60 cells at 0.5 to 1 times IC50 by Western blot analysis; type: functional, cell-based
[4] = tested on: HL-60; assay: Induction of autophagy in human HL-60 cells assessed as increase in autophagic flux by measuring increase in red-stained cells at 0.5 to 1 times IC50 by acridine orange staining based microscopic analysis; type: functional, cell-based
[5] = biological target: T1, Polyamine deacetylase HDAC10 (Homo sapiens) (UniProt Q969S8); assay: Inhibition of HDAC10 (unknown origin) assessed as residual activity at 1.52 x 10^-9M (reference value: 101.54%); conditions: dose 1.52 10^-9M
T1 sequence (whole entry): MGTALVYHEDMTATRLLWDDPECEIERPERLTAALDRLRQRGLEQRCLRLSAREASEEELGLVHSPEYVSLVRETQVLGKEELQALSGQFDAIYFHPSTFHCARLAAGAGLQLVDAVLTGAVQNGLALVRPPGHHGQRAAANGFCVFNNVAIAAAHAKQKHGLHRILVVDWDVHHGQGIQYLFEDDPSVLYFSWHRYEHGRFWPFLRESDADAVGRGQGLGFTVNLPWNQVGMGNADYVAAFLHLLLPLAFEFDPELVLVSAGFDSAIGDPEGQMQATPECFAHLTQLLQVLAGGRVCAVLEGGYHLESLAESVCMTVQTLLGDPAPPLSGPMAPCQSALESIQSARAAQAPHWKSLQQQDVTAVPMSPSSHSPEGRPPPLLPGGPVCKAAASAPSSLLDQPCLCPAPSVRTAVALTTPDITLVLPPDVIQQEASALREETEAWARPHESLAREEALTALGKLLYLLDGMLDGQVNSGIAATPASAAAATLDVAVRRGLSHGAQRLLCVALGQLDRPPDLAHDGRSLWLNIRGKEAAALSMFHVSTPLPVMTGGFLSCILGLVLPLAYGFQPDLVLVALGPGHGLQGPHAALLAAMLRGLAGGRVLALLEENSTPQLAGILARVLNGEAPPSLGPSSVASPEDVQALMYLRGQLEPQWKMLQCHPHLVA

[6] = biological target: T2, Histone deacetylase 7 (Homo sapiens) (UniProt Q8WUI4); assay: Inhibition of HDAC7 (unknown origin) assessed as residual activity at 4.57 x 10^-9M (reference value: 102.66%); conditions: dose 4.57 10^-9M
T2 sequence (whole entry): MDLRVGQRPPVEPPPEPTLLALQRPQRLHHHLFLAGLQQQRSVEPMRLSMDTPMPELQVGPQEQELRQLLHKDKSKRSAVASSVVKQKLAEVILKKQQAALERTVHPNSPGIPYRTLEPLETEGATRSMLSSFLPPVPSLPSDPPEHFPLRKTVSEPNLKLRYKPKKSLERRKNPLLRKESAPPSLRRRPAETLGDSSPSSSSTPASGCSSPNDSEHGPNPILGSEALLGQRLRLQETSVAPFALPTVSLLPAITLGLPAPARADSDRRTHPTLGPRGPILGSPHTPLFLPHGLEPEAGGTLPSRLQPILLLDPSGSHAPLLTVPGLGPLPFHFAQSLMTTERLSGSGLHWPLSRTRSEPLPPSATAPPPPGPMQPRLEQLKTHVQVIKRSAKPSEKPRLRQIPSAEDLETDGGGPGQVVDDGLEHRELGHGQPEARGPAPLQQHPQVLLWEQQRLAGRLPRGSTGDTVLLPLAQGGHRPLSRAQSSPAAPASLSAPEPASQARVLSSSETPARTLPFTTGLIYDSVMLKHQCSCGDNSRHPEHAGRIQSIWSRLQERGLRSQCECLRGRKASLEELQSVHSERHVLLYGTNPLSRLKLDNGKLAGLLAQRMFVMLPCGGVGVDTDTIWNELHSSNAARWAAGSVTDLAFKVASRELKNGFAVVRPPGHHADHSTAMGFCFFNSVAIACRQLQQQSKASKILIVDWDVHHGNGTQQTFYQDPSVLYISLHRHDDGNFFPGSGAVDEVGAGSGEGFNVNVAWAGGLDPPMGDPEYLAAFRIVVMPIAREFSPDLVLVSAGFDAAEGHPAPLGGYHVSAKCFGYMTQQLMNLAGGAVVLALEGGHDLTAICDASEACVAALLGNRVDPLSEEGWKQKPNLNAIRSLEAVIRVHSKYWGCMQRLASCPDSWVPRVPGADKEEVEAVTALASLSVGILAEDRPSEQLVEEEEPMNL

Activity [1]: 12.8% | Activity [2]: 96.7% | Activity [5]: 97.3% | Activity [6]: 111%
Structure (SMILES): NC(=O)c1cccc2[nH]c(-c3ccc(NCc4ccc(C(=O)Nc5ccccc5N)cc4)cc3)nc12
Activity [3]: Active | Activity [4]: Active
